{"source": "patent US20250195598A1", "about": "“FLAVONOID ACTIVE FRACTION OF AN ABELMOSCHI COROLLA, PREPARATION METHOD AND APPLICATION THEREOF” (SUZHONG PHARMACEUTICAL GROUP CO., LTD., priority 2022, published 2025)", "key": {"[1]": {"conditions": "compared with the control group; cited from earlier work"}, "[2]": {"tested_on": "MRL/lpr mice", "experiment": "lupus erythematosus nephritis", "format": "in vivo", "conditions": "Dexamethasone 1 mg/kg, Embodiment 2-B 69.9 mg/kg, other samples 87.36 mg/kg", "source_text": "26 male MRL/lpr mice (lupus erythematosus nephritis mice) were selected as an observation group 1, with 18 g to 22 g weight and 13 weeks old, which were purchased from Nanjing Junke Bioengineering Co., Ltd., and 24 male C57BL/6 mice were selected as a normal group, with 18 g to 22 g weight and 13 weeks old, which were purchased from Wuhan Hualianke Biotechnology Co., Ltd.\nThe mice were administrated for 4 weeks.\nAfter administration, 24-hour urine was collected to detect urine protein. After the urine was collected, eyeballs of all the mice were taken for blood collection, and the collected blood was centrifuged to obtain serum for antinuclear antibody detection. Meanwhile, kidneys of the mice were taken out, quickly frozen in liquid nitrogen, and stored in a refrigerator at −80° C. for kidney immune detection."}, "[3]": {"tested_on": "SD rats", "experiment": "contrast-induced kidney injury", "format": "in vivo", "conditions": "intragastric, 4 weeks; Irbesartan 50 mg/kg/d, samples 69.9 or 87.36 mg/kg (groups of b143 differ from the table)", "procedure": "Experimental animals: SD rats, 200 g to 250 g weight, SPF grade, half male and half female.\n(§1) Administration mode: intragastric administration.\nExperimental modeling: healthy male SD rats were selected, intramuscularly injected with furosemide (10 ml/kg) first, and then injected with a prostaglandin synthesis inhibitor (indomethacin, 10 mg/kg, dissolved in dimethyl sulfoxide, and diluted with 1.25% of NAHCO3 solution), a nitric oxide synthase inhibitor (N-nitro-L-arginine-methyl ester hydrochloride, L-NAME, 10 mg/kg, dissolved in 0.9% of NaCl solution) and 76% of meglumine diatrizoate by tail vein every 15 minutes.\nIn animal models, the increase of serum creatinine exceeding the baseline by 50% was often used as the diagnostic criterion of acute kidney injury, that was, the success criterion of modeling.\nDrug groups and administration dosages: there were a normal group, a model group, a positive control drug group (Irbesartan 50 mg/kg/d), a sample group of Embodiment 2-1 (69.9 mg/kg), a sample group of Embodiment 3.1 (87.36 mg/kg), a sample group of Embodiment 7 (87.36 mg/kg), a sample group of Embodiment 9.1 (87.36 mg/kg) and a sample group of Embodiment 9.2 (87.36 mg/kg, the solids prepared according to Embodiment 9.2), with 15 rats in each group. […]"}, "[4]": {"tested_on": "diabetic kidney disease model, C57BL/6 mice", "experiment": "streptozotocin (STZ)+high-fat-fed diabetic kidney disease model", "format": "in vivo", "conditions": "samples 62.4 mg/kg, Dapagliflozin tablet 45.5 mg/kg", "procedure": "Administration method: intragastric administration. Experimental modeling: after 3 days of adaptive feeding, the experimental mice were fed with high-fat and high-sugar feed (made by laboratory according to a formula of lard:sucrose:yolk:basic feed=18:20:3:59) for 8 consecutive weeks, and then intraperitoneally injected with an STZ sodium citrate solution according to a dosage of 100 mg/kg for 7 consecutive days. […] When the blood glucose was greater than 13.8 mmol/L, and there were urine protein and renal function abnormality, the modeling was successful. Experimental groups: there were a total of 6 groups, comprising a normal group, a model group, a positive drug group (Dapagliflozin tablet, 45.5 mg/kg), a sample group prepared by the method of Embodiment 2-1 (62.4 mg/kg), a sample group prepared by the method of Embodiment 6 (62.4 mg/kg) and a sample group prepared by the method of Embodiment 8 (62.4 mg/kg), with 15 mice in each group. After 4 weeks of administration, urine protein and urine creatinine were detected, and a daily food intake and a mouse state were calculated."}, "[5]": {"tested_on": "db/db mice", "experiment": "db/db mice diabetic kidney disease model", "format": "in vivo", "conditions": "samples 62.4 mg/kg, Dapagliflozin tablet 45.5 mg/kg", "procedure": "Animal model: db/db mice, 16 weeks old, and C57 BL/6 mice, 16 weeks old. Administration mode: intragastric administration. Experimental modeling: the db/db mice were raised for 17 weeks, and then urine protein was detected. When there were urine protein and renal function abnormality, the modeling was successful for later experiment. Experimental groups: there were a normal group of the C57 BL/6 mice, a model group of the db/db mice, a positive drug group (Dapagliflozin tablet, 45.5 mg/kg), a sample group prepared by the method of Embodiment 3-1 (62.4 mg/kg), a sample group prepared by the method of Embodiment 9.1 (62.4 mg/kg), and a sample group prepared by the method of Embodiment 2-A3 (62.4 mg/kg). There were 6 groups in total, with 15 mice in each group. After 4 weeks of administration, urine protein, urine creatinine and a daily food intake were detected, and a mouse state was observed."}, "[6]": {"conditions": "compounds having five hydroxyl groups; cited from earlier work"}, "[7]": {"tested_on": "Brown-Norway rats", "experiment": "ocular blood flow and choroidal neovascularization after krypton laser photocoagulation", "format": "in vivo", "conditions": "intragastric, after 4 weeks; Verteporfin 1.35 mg/kg, Embodiment 2-1 69.9 mg/kg, other samples 87.36 mg/kg", "procedure": "Experimental animals: rats, 150 g to 180 g weight, SPF grade, half male and half female.\nas §1\nExperimental modeling: healthy male Brown-Norway rats were selected and anesthetized by intramuscular injection of ketamine (50 mg/kg), pupils of the rats were dilated with a mixed mydriatic of 0.5% tropicamide and neofolin, and 8 points were photocoagulated between great retinal vessels around an optic disc at a distance 2 to 4 disc diameters away from the optic disc under a 120D special front lens by a krypton yellow laser (Lumenis Company in the United States) (wavelength 568 nm, and parameters: spot diameter […], exposure time 0.1 second, and power 150 mW to 200 mW). […]\nDrug groups and administration dosages: there were a normal group, a model group, a positive control drug group (Verteporfin 1.35 mg/kg), a sample group of Embodiment 2-1 (69.9 mg/kg), a sample group of Embodiment 3.1 (87.36 mg/kg), a sample group of Embodiment 7 (87.36 mg/kg), a sample group of Embodiment 9.1 (87.36 mg/kg) and a sample group of Embodiment 9.2 (87.36 mg/kg, solids prepared according to Embodiment 9.2), with 15 rats in each group. After 4 weeks of administration, an inhibition rate of choroidal blood flow and an area of choroidal neovascularization of eyes were detected."}, "[8]": {"tested_on": "Kunming mice", "experiment": "bleomycin-induced idiopathic pulmonary fibrosis", "format": "in vivo", "conditions": "HE staining, four grades, 28 days; Rosiglitazone 5 mg/kg, samples 70 mg/kg, Huangkui Capsule 180 mg/kg based on the extract", "procedure": "Experimental animals: 60 Kunming mice, half male and half female, 18 g to 22 g weight, clean grade.\nAnimal groups: the mice were randomly divided into 6 groups, which comprise a normal group, a model group, a drug control group (5 mg/kg of Rosiglitazone), a sample group prepared by the method of Embodiment 2-A3 (70 mg/kg), a sample group prepared by the method of Embodiment 9.2 (70 mg/kg) and a Huangkui Capsule sample group (180 mg/kg based on the extract), with 10 mice in each group.\nExperimental modeling: after 3 days of adaptive feeding, the experimental mice were anesthetized by intraperitoneal injection with 4% chloral hydrate (0.01 ml/g). Taking a supine fixed position, routine disinfection was carried out, a median cervical incision was made, and a trachea was exposed by passive separation. The model group, the control group and the treatment group were slowly injected with bleomycin (5 mg/kg) into a space between tracheal cartilaginous rings, and the normal control group was injected with the same volume of normal saline. The mice were immediately rotated upright for 3 minutes to 5 minutes after the injection, so that the liquid medicine was evenly distributed in both lungs, then skin of the mice was sutured and disinfected at a suture, and the mice after waking were sent to a clean grade observation room for feeding. […]"}}}
{"compound": "OC[C@H]1O[C@@H](c2ccc(Cl)c(Cc3ccc(O[C@H]4CCOC4)cc3)c2)[C@H](O)[C@@H](O)[C@@H]1O", "note": "[Empagliflozin]", "values": [{"measurement": "serum uric acid level", "setting": "[1]", "value": "significantly reduces"}]}
{"compound": "C[C@@H]1C[C@H]2[C@@H]3CCC4=CC(=O)C=C[C@]4(C)[C@@]3(F)[C@@H](O)C[C@]2(C)[C@@]1(O)C(=O)CO", "note": "[Dexamethasone]", "values": [{"measurement": "Urine protein", "setting": "[2]; 24-hour urine after 4 weeks", "value": "11.67 ± 3.45"}, {"measurement": "C3 level of kidney", "setting": "[2]; kidney tissue after 4 weeks", "value": "1.21 ± 0.67"}, {"measurement": "IgG level of kidney", "setting": "[2]; kidney tissue after 4 weeks", "value": "1.32 ± 0.67"}, {"measurement": "Logarithm of antinuclear antibody titers", "setting": "[2]; serum after 4 weeks", "value": "0.81 ± 0.11"}]}
{"compound": "CCOc1ccc(Cc2cc([C@@H]3S[C@H](CO)[C@@H](O)[C@H](O)[C@H]3O)c(OC)cc2C)cc1", "note": "[Luseogliflozin]", "values": [{"measurement": "serum uric acid level", "setting": "[1]", "value": "significantly reduces"}]}
{"compound": "CCc1ccc(Cc2ccc3c(c2)[C@]2(OC3)O[C@H](CO)[C@@H](O)[C@H](O)[C@H]2O)cc1", "note": "[Tofogliflozin]", "values": [{"measurement": "serum uric acid level", "setting": "[1]", "value": "significantly reduces"}]}
{"compound": "Cc1ccc([C@@H]2O[C@H](CO)[C@@H](O)[C@H](O)[C@H]2O)cc1Cc1ccc(-c2ccc(F)cc2)s1", "note": "[Canagliflozin]", "values": [{"measurement": "serum uric acid level", "setting": "[1]", "value": "significantly reduces"}]}
{"compound": "OC[C@H]1O[C@@H](c2ccc(F)c(Cc3cc4ccccc4s3)c2)[C@H](O)[C@@H](O)[C@@H]1O", "note": "[Ipragliflozin]", "values": [{"measurement": "serum uric acid level", "setting": "[1]", "value": "significantly reduces"}]}
{"compound": "CCCCC1=NC2(CCCC2)C(=O)N1Cc1ccc(-c2ccccc2-c2nnn[nH]2)cc1", "note": "[Irbesartan]", "values": [{"measurement": "Serum creatinine", "setting": "[3]", "value": "16.67 ± 1.23"}, {"measurement": "Serum urea nitrogen", "setting": "[3]", "value": "3.01 ± 0.98"}]}
{"compound": "CCOc1ccc(Cc2cc([C@@H]3O[C@H](CO)[C@@H](O)[C@H](O)[C@H]3O)ccc2Cl)cc1", "note": "[Dapagliflozin tablet, Dapagliflozin]", "values": [{"measurement": "Urine albumin-to-creatinine ratio", "setting": "[4]; intragastric, after 4 weeks of administration", "value": "1.04 ± 1.09"}, {"measurement": "Urine protein/mg", "setting": "[4]; intragastric, after 4 weeks of administration, 15 mice per group", "value": "17.51 ± 12.34", "unit": "mg"}, {"measurement": "Abdominal distension/number of mice", "setting": "[4]; of 15 mice per group, 4 weeks", "value": "0 number of mice"}, {"measurement": "Diarrhea/number of mice", "setting": "[4]; of 15 mice per group, 4 weeks", "value": "0 number of mice"}, {"measurement": "Urine albumin-to-creatinine ratio/", "setting": "[5]; intragastric, after 4 weeks", "value": "1.17 ± 1.26"}, {"measurement": "Urine protein/mg", "setting": "[5]; intragastric, after 4 weeks", "value": "15.09 ± 10.27", "unit": "mg"}, {"measurement": "Abdominal distension/number of mice", "setting": "[5]; of 15 mice per group, 4 weeks", "value": "0 number of mice"}, {"measurement": "Diarrhea/number of mice", "setting": "[5]; of 15 mice per group, 4 weeks", "value": "0 number of mice"}]}
{"compound": "O=c1c(O)c(-c2ccc(O)c(O)c2)oc2cc(O)cc(O)c12", "note": "[quercetin]", "values": [{"measurement": "effect on ocular blood flow", "setting": "[6]", "value": "negative effect"}]}
{"compound": "Verteporfin", "values": [{"measurement": "Area of choroidal angiogenesis/μm^2", "setting": "[7]", "value": "19.80 ± 1.23^# μm^2"}, {"measurement": "Ocular choroidal blood flow inhibition ratio", "setting": "[7]", "value": "87.98 ± 11.23"}]}
{"compound": "CN(CCOc1ccc(CC2SC(=O)NC2=O)cc1)c1ccccn1", "note": "(stereo not drawn) [Rosiglitazone]", "values": [{"measurement": "Degree of pulmonary alveolitis", "setting": "[8]", "value": "1.03 ± 0.49"}, {"measurement": "Degree of pulmonary fibrosis", "setting": "[8]", "value": "1.15 ± 0.81"}]}
